# From ChEMBL document CHEMBL5046231, “Modulation of Naturally Occurring Linear Dipeptide Chirality to Reduce the Affinity for Oligopeptide Transporter 1 and Increase Intestinal Stability for an Enhanced Colon-Targeting Effect in the Treatment of Inflammatory Bowel Disease: An Application of trans-4-l-Hydroxyprolyl-l-serine” (J Med Chem, 2022)
# Active and inactive are the calls of the source. The rule behind the calls is not given here.
# What was measured:
# [1] = Chemical stability in 0.1 M HCl at pH 1.2 assessed as half life measured up to 12 hrs by HPLC analysis; format: physicochemical
# [2] = Chemical stability in acetate buffer at pH 4.5 assessed as half life measured up to 12 hrs by HPLC analysis; format: physicochemical
# [3] = Chemical stability in phosphate buffer at pH 6.8 assessed as half life measured up to 12 hrs by HPLC analysis; format: physicochemical
# [4] = Chemical stability in phosphate buffer at pH 7.2 assessed as half life measured up to 12 hrs by HPLC analysis; format: physicochemical
# [5] = Stability in simulated gastric fluid at pH 1.2 assessed as half life measured up to 12 hrs by HPLC analysis; format: ADME
# [6] = Stability in simulated intestinal fluid at pH 6.8 assessed as half life measured up to 12 hrs by HPLC analysis; format: ADME
# [7] = Metabolic stability in healthy C57BL/6 mouse jejunum assessed as half life measured up to 12 hrs by HPLC analysis; format: ADME, tissue-based
# [8] = Metabolic stability in healthy C57BL/6 mouse colon assessed as half life measured up to 12 hrs by HPLC analysis; format: ADME, tissue-based
# [9] = Metabolic stability in healthy C57BL/6 mouse colonic flora homogenate assessed as half life measured up to 12 hrs by HPLC analysis; format: ADME
# [10] = Metabolic stability in healthy C57BL/6 mouse liver assessed as half life measured up to 12 hrs by HPLC analysis; format: ADME, tissue-based
# [11] = Metabolic stability in healthy C57BL/6 mouse plasma assessed as half life measured up to 12 hrs by HPLC analysis; format: ADME, cell-free
# [12] = Metabolic stability in DSS-induced C57BL/6 mouse jejunum assessed as half life measured up to 12 hrs by HPLC analysis; format: ADME, tissue-based
# [13] = Metabolic stability in DSS-induced C57BL/6 mouse colon assessed as half life measured up to 12 hrs by HPLC analysis; format: ADME, tissue-based
# [14] = Metabolic stability in DSS-induced C57BL/6 inflammatory mouse model colonic flora homogenate assessed as half life measured up to 12 hrs by HPLC analysis; format: ADME; details: C57BL/6, mouse
# [15] = Stability in human Caco-2 cells homogenate assessed as half life measured up to 12 hrs by HPLC analysis; format: ADME, cell-based; details: Caco-2 cell homogenate
# [16] = molecular target: T1, Solute carrier family 15 member 1 (Rattus norvegicus, UniProt P51574); test: Substrate activity in PEPT1 in Sprague-Dawley rat jejunum assessed as fold increase in effective permeability at 5 mM measured up to 60 mins in presence of Gly-Sar by HPLC analysis relative to its enantiomers; format: ADME, tissue-based; details: 1 h, 5000 µM
# T1 sequence (P51574 whole entry): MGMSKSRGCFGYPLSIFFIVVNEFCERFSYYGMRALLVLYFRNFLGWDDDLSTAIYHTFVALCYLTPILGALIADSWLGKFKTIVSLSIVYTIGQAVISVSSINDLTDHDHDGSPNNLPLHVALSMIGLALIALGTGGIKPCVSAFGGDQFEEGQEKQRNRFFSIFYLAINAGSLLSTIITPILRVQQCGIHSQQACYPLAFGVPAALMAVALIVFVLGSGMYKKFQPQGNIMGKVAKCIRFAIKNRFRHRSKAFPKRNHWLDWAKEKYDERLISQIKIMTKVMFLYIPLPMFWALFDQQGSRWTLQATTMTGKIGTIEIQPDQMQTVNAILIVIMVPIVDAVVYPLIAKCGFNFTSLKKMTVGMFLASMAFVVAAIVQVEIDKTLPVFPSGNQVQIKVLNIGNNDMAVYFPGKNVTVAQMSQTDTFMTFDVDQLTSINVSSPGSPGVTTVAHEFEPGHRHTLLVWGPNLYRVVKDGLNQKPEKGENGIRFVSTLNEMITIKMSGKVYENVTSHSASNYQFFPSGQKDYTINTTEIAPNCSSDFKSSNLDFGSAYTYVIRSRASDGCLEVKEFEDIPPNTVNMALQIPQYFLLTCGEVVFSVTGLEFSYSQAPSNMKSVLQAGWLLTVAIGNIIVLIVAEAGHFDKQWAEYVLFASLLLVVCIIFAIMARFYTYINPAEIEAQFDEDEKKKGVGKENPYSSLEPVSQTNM
# [17] = molecular target: T2, Solute carrier family 15 member 1 (Homo sapiens, UniProt P46059); test: Substrate activity at PEPT1 in human Caco-2 cells assessed as inhibition of Gly-Sar substrate uptake by UPLC-MS/MS analysis; format: cell-based
# T2 sequence (P46059 whole entry): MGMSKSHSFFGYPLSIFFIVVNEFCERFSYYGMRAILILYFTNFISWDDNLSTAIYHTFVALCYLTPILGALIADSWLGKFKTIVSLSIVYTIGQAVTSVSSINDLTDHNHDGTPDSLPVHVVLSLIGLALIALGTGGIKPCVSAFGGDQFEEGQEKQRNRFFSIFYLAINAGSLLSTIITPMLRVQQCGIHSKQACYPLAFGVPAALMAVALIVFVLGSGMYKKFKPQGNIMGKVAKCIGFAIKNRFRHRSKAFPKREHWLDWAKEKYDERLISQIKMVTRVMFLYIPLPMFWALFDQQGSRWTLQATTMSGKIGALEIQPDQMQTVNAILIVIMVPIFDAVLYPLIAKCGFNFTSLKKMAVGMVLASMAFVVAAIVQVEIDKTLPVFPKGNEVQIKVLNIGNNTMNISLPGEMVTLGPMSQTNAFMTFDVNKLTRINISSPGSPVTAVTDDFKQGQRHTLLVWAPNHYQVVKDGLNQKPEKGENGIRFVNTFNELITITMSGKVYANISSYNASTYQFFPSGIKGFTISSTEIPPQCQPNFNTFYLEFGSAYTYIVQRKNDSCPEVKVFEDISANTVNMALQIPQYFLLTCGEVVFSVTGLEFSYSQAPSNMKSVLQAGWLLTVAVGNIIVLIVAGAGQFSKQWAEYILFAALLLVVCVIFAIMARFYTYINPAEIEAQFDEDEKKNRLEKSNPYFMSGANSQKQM
# [18] = molecular target: T2, Solute carrier family 15 member 1; test: Substrate activity at PEPT1 in human Caco-2 cells assessed as fold increase in drug uptake by UPLC-MS/MS analysis relative to its enantiomers; format: ADME, cell-based
# [19] = molecular target: T2, Solute carrier family 15 member 1; test: Substrate activity at PEPT1 in human Caco-2 cells assessed as fold reduction in drug uptake in presence of Gly-Sar by UPLC-MS/MS analysis relative to its enantiomers; format: ADME, cell-based
# [20] = AUC (0 to 6 hrs) in DSS-induced colitis C57BL/6 mouse model at 25 mg/kg, po measured up to 6 hrs by UPLC-MS/MS analysis; format: ADME, organism-based; parameters: route oral, dose 25 mg/kg, time <=6; details: in vivo
# [21] = Cmax in DSS-induced colitis C57BL/6 mouse model at 25 mg/kg, po measured up to 6 hrs by UPLC-MS/MS analysis; format: ADME, organism-based; parameters: route oral, dose 25 mg/kg, time <=6; details: in vivo
# [22] = Tmax in DSS-induced colitis C57BL/6 mouse model at 25 mg/kg, po measured up to 6 hrs by UPLC-MS/MS analysis; format: ADME, organism-based; details: in vivo
# Mus musculus [23] = test: Anti-colitis activity against DSS-induced colitis in C57BL/6 mouse model assessed as assessed as recovery of body weight at 25 mg/kg, po administered via gavage twice daily for 10 days; format: functional, organism-based; details: time 10.0 day
# Mus musculus [24] = test: Anti-colitis activity against DSS-induced colitis in C57BL/6 mouse model assessed as increase in colon length at 25 mg/kg, po administered via gavage twice daily for 10 days; format: functional, organism-based; details: time 10.0 day
# Mus musculus [25] = test: Anti-colitis activity against DSS-induced colitis in C57BL/6 mouse model assessed as fold decrease in disease activity index at 25 mg/kg, po administered via gavage twice daily for 10 days relative to control; format: functional; details: time 10 day
# [26] = Apparent permeability across apical to basolateral side in human Caco-2 cells assessed as fold increase in permeability at 0.5 mM measured up to 60 mins by UPLC-MS/MS analysis relative to its enantiomers; format: ADME, cell-based; details: caco-2, 1 h, 500 µM
# Jejunum = test: Effective permeability in Sprague-Dawley rat jejunum assessed as fold increase in permeability at 5 mM measured up to 60 mins by HPLC analysis relative to its enantiomers; format: ADME, tissue-based; details: 1 h, 5000 µM
# Mus musculus [27] = test: Anti-colitis activity against DSS-induced C57BL/6 mouse model of colitis assessed as assessed as body weight recovery at 50 mg/kg, po administered via gavage DSS stimulation for 5 days followed by compound addition once daily for 10 days; format: functional, organism-based; details: time 10.0 day
# Mus musculus [28] = test: Anti-colitis activity against DSS-induced C57BL/6 mouse model of colitis assessed as increase in colon length at 50 mg/kg, po administered via gavage DSS stimulation for 5 days followed by compound addition once daily for 10 days; format: functional, organism-based; details: time 10.0 day
# Mus musculus [29] = test: Anti-colitis activity against DSS-induced colitis in C57BL/6 mouse model assessed as fold decrease in disease activity index at 50 mg/kg, po administered via gavage twice daily for 10 days relative to control; format: functional; details: time 10 day
# Mus musculus [30] = test: Anti-colitis activity against DSS-induced colitis in C57BL/6 mouse model assessed as body weight recovery at 50 mg/kg, po administered via gavage twice a day for 10 days; format: functional, organism-based; details: time 10.0 day
# Mus musculus [31] = test: Anti-colitis activity against DSS-induced colitis in C57BL/6 mouse model assessed as increase in colon length at 50 mg/kg, po administered via gavage twice a day for 10 days; format: functional, organism-based; details: time 10.0 day
# Mus musculus [32] = test: Anti-colitis activity against DSS-induced colitis in C57BL/6 mouse model assessed as reduction colonic damage at 50 mg/kg, po administered via gavage twice a day for 10 days; format: functional, organism-based; details: time 10.0 day
# Mus musculus [33] = test: Anti-colitis activity against DSS-induced C57BL/6 mouse model of colitis assessed as fold change in body weight recovery at 25 to 100 mg/kg, po administered via gavage twice a day for 10 days relative to SASP; format: functional; details: dose 25-100 mg/kg; time 10 day
# Mus musculus [34] = test: Anti-colitis activity against DSS-induced C57BL/6 mouse model of colitis assessed as fold change in colon length at 25 to 100 mg/kg, po administered via gavage twice a day for 10 days relative to SASP; format: functional; details: dose 25-100 mg/kg; time 10 day
# Mus musculus [35] = test: Anti-colitis activity against DSS-induced C57BL/6 mouse model of colitis assessed as fold change in disease activity index at 25 to 100 mg/kg, po administered via gavage twice a day for 10 days relative to SASP; format: functional; details: dose 25-100 mg/kg; time 10 day
# Mus musculus [36] = test: Anti-colitis activity against DSS-induced colitis in C57BL/6 mouse model assessed as decrease in MPO level in colon at 50 mg/kg, po administered via gavage twice a day for 10 days; format: functional; parameters: scale not given: the % may be the effect or the level left; details: time 10 day
# Mus musculus [37] = test: Antiinflammatory activity in DSS-induced C57BL/6 mouse model of colitis assessed as decrease in TNF-alpha level 25 to 100 mg/kg, po administered via gavage twice a day for 10 days; format: functional, organism-based; details: dose 25-100 mg/kg, time 10.0 day
# Mus musculus [38] = test: Antiinflammatory activity in DSS-induced C57BL/6 mouse model of colitis assessed as decrease in IL-1beta level 25 to 100 mg/kg, po administered via gavage twice a day for 10 days; format: functional, organism-based; details: dose 25-100 mg/kg, time 10.0 day
# Mus musculus [39] = test: Antiinflammatory activity in DSS-induced C57BL/6 mouse model of colitis assessed as decrease in […] level 25 to 100 mg/kg, po administered via gavage twice a day for 10 days; format: functional, organism-based; details: dose 25-100 mg/kg, time 10.0 day
# Mus musculus [40] = test: Antiinflammatory activity in DSS-induced C57BL/6 mouse model of colitis assessed as increase in IL-10 level 25 to 100 mg/kg, po administered via gavage twice a day for 10 days; format: functional, organism-based; details: dose 25-100 mg/kg, time 10.0 day
smiles,measurement,setting,value
O=C(N[C@H](CO)C(=O)O)[C@@H]1C[C@@H](O)CN1,half-life,[1],> 12 h
same,half-life,[2],> 12 h
same,half-life,[3],> 12 h
same,half-life,[4],> 12 h
same,half-life,[5],> 12 h
same,half-life,[6],> 12 h
same,half-life,[7],0.33 h
same,half-life,[8],> 12 h
same,half-life,[9],0.91 h
same,half-life,[10],0.32 h
same,half-life,[11],> 12 h
same,half-life,[12],0.39 h
same,half-life,[13],> 12 h
same,half-life,[14],0.99 h
same,half-life,[15],> 12 h
same,fold change (FC),[16],4.6
same,IC50,[17],10.2 mM
same,fold change (FC),[18],3.3
same,fold change (FC),[19],3.4
same,AUC,[20],1.67 microM/L.hr
same,Cmax,[21],640 nM
same,Tmax,[22],2 h
same,Activity,Mus musculus [23],Active
same,Activity,Mus musculus [24],Active
same,fold change (FC),Mus musculus [25],1.5
same,fold change (FC),[26],6.3
same,fold change (FC),Jejunum,7.3
O=C(O)c1cc(/N=N/c2ccc(S(=O)(=O)Nc3ccccn3)cc2)ccc1O [SULFASALAZINE],Activity,Mus musculus [23],Active
same,Activity,Mus musculus [24],Active
same,Activity,Mus musculus [27],Active
same,Activity,Mus musculus [28],Active
same,fold change (FC),Mus musculus [29],1.5
same,Activity,Mus musculus [30],Active
same,Activity,Mus musculus [31],Active
same,Activity,Mus musculus [32],Active
same,fold change (FC),Mus musculus [33],2.1
same,fold change (FC),Mus musculus [34],1.2
same,fold change (FC),Mus musculus [35],2.3
same,Activity,Mus musculus [36],27.3%
same,Activity,Mus musculus [37],Active
same,Activity,Mus musculus [38],Active
same,Activity,Mus musculus [39],Active
same,Activity,Mus musculus [40],Active
